Test results: patent US8324380B2, “Amino-heteroaryl-containing prokineticin 1 receptor antagonists” (Janssen Pharmaceutica NV, priority 2007, dated 2012)
Like-named read-outs stand apart in the source and are kept apart here.

Experiments:
[1] = biological target: T1, GPR73 (prokineticin 1 receptor) (Homo sapiens, UniProt Q8TCW9); assay: PK1 functional assay: Ca2+ mobilization on the FLIPR; type: cell-based; conditions: for IC50: HEK 293 GPR73 cells, read-out: Ca^2+ Mobilization IC50
T1 construct: expressed in transfected cells; host or cells: HEK 293
T1 sequence (Q8TCW9 whole entry, species assumed): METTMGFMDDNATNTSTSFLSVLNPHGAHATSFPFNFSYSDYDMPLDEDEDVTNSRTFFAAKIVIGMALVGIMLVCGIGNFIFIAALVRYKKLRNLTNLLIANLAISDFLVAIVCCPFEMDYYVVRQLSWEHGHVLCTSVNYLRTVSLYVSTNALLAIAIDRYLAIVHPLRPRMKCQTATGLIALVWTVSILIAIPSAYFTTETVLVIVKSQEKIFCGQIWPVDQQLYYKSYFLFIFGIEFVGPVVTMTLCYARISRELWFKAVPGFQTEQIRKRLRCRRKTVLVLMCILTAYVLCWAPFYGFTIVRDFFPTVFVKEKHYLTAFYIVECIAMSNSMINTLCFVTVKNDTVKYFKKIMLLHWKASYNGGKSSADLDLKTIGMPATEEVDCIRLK
Experimental: At a time of 24 h prior to running the assay, in cell culture media (DMEM containing high Glucose and L-glutamine, 10% FBS, 1% Pen/Streptomycin, 1% Sodium Pyruvate, 20 mM HEPES, Zeocin 200 mg/L), 100 µL of 1.3*10^6/ml HEK 293 GPR73 (prokineticin 1 receptor) expressing cells were plated in a 96 well poly-d-lysine coated plate (Costar), and incubated at 37° C. and 5% CO2. On the day in which the assay was run, the media was removed and 200 µL of 5× Calcium Plus Dye (Molecular Devices) which was previously resuspended with 200 mL of assay buffer [HBSS w/Ca^2+ and Mg^2+ w/o phenol red, 20 mM HEPES, 0.1% BSA, 10 mL probenecid (710 mg probenecid in 5 mL of 1N NaOH, to which was then added 5 mL HBSS containing 20 mM HEPES)] was added to each well of the 96-well plate. The plate was incubated at 37° C. and 5% CO2 for 30 min in dark. The plate was removed and allowed to reach RT for 15 min in the dark. The assay was then run on the FLIPR. In Brief: base line read for 1 min, compound added (25 μL) and incubated for 4 min, 15 seconds, PK1 ligand preparation added (25 μL) for a final concentration of a previously determined EC50 and fluorescence was counted for 1 min, 45 seconds. Baseline is described as the amount of relative fluorescence read when buffer alone is added to cells. Baseline was subtracted from all wells. Percent of control was calculated as follows: (Baseline subtracted well value is divided by baseline subtracted max value)*100. Percent inhibition is 100 minus the percent of control value.
The IC50 is defined as the amount of a given compound required to inhibit 50% of the maximum signal that is generated by the concentration of PK1 preparation used in our assay. IC50 values were calculated using GraphPad Prism.

[2] = test system: isolated rat ileum mucosa
[3] = test system: rat ileum mucosa; assay: Carbachol-evoked Isc in rat ileum mucosa (selectivity test); conditions: carbachol at two concentrations, ascending cumulative, serosal side
[4] = biological target: T2, PK1 receptor (Rattus norvegicus, UniProt Q8R416); assay: Suppression of PK1 evoked increase in Isc in isolated rat ileum mucosa; conditions: test compound 1 µM, 15 min; PK1 10 and 100 nM cumulative
T2 construct: The PK1 evoked increase in Isc requires the presence of endogenous PK1 receptors; from tissue; host or cells: rat ileum mucosa (Ussing-type chambers)
T2 sequence (Q8R416 whole entry): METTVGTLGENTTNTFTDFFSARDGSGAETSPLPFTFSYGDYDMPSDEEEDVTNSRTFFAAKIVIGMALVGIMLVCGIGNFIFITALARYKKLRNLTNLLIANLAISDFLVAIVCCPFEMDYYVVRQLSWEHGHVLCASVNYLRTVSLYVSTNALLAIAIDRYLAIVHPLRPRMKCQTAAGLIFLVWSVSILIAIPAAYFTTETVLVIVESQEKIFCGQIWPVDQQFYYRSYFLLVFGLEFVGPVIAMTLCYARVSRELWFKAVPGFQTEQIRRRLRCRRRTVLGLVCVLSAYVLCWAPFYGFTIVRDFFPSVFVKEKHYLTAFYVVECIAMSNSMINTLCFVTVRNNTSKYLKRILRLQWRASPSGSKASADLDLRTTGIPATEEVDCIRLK
Experimental: Methodology. The basic methodology for Ussing-type ion flux chambers used in these studies was the same as that described in detail above with the following modifications to the experimental protocol. […] The responses to two sequential EFS were used to gauge tissue viability and comparability of the responses of individual tissues from each rat and between rats. Tissue conductance was measured at periodic intervals as changes in the amplitudes of brief short-circuit current responses evoked by application of 1 mV amplitude bi-polar pulses from a pulse generator using Ohm's Law. Three to four tissues from each rat were studied. The tissues from a given animal were grouped and assigned accordingly: one control tissue which received only vehicle followed by two consecutive doses of PK-1 ligand added in a cumulative fashion to the basolateral surface of the tissue; the remaining two to three tissues from the same animal were assigned to be exposed to a given PK-1 receptor antagonist (e.g., 3-4 tissues from 1 rat: Control, Antagonist1, Antagonist2, and/or Antagonist3). Test compound was added to the basolateral tissue side reservoir at a final concentration of 1 µM and allowed a 15 minute incubation period prior to challenge with the PK1 peptide. […]

SMILES: COc1ccc(Cn2c(NCCn3c(N)nc4ccc(C)cc43)nc(=O)n(Cc3ccc(F)cc3)c2=O)cc1 [Cpd 3, 6-[2-(2-Amino-6-methyl-benzoimidazol-1-yl)-ethylamino]-3-(4-fluoro-benzyl)-1-(4-methoxy-benzyl)-1H-[1,3,5]triazine-2,4-dione]
- Ca^2+ Mobilization % Inh @10 µM ([1]; 10 µM, (further determination)): 94%
- Ca^2+ Mobilization % Inh @10 µM ([1]; 10 µM): 96%
- IC50 ([1]; IC50 (further determination)): 29 nM
- IC50 [1]: 8 nM
- suppression of Cholera toxin induced increase in Isc (figure legends) [2]: suppresses
- suppression of the sustained increase in baseline Isc evoked by Cholera toxin [2]: 50-60%
- effect versus increased baseline Isc evoked by Vibrio cholera toxin ([2]; 1 μM): no significant effect
- suppression of the pro-secretory effect of carbachol [3]: failed to suppress
- suppression of the PK1 evoked increase in Isc [4]: suppresses
